Data published in article PMC9861757, “New Insights into Conformationally Restricted Carbonic Anhydrase Inhibitors” (Molecules, 2023).
Read-outs that look alike come from different tables or passages of the source.

Legend:
human CA I [1] = target: T1, human CA I (Homo sapiens, UniProt P00915); assay: stopped-flow CO2 hydrase assay, CA I inhibition; details: for loss of CA I inhibition potency relative to 3a: comparator 3a; for inhibition of CA I (in words): qualitative statement
Description: (§1) An Applied Photophysics stopped-flow instrument was used to assay the CA catalyzed CO2 hydration activity [14]. […] The uncatalyzed rates were determined in the same manner and subtracted from the total observed rates. Stock solutions of the inhibitor (0.1 mM) were prepared in distilled–deionized water and dilutions up to 0.01 nM were done thereafter with the assay buffer. Inhibitor and enzyme solutions were preincubated together for 15 min at room temperature prior to the assay to allow for the formation of the E–I complex. The inhibition constants were obtained by non-linear least-squares methods using PRISM 3 and the Cheng–Prusoff equation, as reported earlier, and represent the mean from at least three different determinations. All CA isoforms were recombinant proteins obtained in house, as reported earlier [1, 12, 13].

human CA II [2] = target: T2, human CA II (Homo sapiens, UniProt P00918); assay: stopped-flow CO2 hydrase assay, CA II inhibition
Description: as §1

human CA IX [3] = target: T3, human CA IX (Homo sapiens, UniProt Q16790); assay: stopped-flow CO2 hydrase assay, CA IX inhibition; details: for SI (IX/II): ratio KI CA IX / KI CA II
Description: as §1

human CA XII [4] = target: T4, human CA XII (Homo sapiens, UniProt O43570); assay: stopped-flow CO2 hydrase assay, CA XII inhibition
Description: as §1

human CA I [5] = target: T1, human CA I; design: made in house; method as in PMID 31076951; details: stopped-flow CO2 hydrase assay; compound marked with a reference in Table 1; cited from earlier work
human CA II [6] = target: T2, human CA II; design: made in house; method as in PMID 31076951; details: stopped-flow CO2 hydrase assay; compound marked with a reference in Table 1; cited from earlier work
human CA IX [7] = target: T3, human CA IX; design: made in house; method as in PMID 31076951; details: stopped-flow CO2 hydrase assay; compound marked with a reference in Table 1; cited from earlier work
human CA XII [8] = target: T4, human CA XII; design: made in house; method as in PMID 31076951; details: stopped-flow CO2 hydrase assay; compound marked with a reference in Table 1; cited from earlier work

T1 sequence (P00915 whole entry): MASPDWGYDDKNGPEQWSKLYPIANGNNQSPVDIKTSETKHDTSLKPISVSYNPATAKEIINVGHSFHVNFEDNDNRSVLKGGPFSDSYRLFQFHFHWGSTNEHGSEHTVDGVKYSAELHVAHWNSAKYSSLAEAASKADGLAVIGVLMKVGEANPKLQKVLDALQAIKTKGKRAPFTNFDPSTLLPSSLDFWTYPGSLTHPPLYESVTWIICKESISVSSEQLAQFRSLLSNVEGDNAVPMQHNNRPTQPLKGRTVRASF
T4 sequence (O43570 25-354): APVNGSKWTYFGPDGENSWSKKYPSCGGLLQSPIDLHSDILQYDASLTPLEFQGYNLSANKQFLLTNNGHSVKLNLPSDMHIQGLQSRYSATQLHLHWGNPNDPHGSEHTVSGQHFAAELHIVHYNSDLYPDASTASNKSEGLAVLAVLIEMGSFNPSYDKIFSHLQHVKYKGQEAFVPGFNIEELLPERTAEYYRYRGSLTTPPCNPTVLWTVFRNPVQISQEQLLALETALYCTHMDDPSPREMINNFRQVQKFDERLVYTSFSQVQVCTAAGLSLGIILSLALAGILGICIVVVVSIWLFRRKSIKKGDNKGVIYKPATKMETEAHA

Row | Ki (human CA I [1]) | Ki (human CA II [2]) | Ki (human CA IX [3]) | SI (IX/II) (human CA IX [3]) | Ki (human CA XII [4]) | Structure (SMILES) | further results
1 | 583 nM | 3180 nM | 369 nM | 0.12 | 91.3 nM | NS(=O)(=O)c1ccc(O)c(NC(=O)N2CCCC2)c1 [Compound 3a, N-(2-Hydroxy-5-sulfamoylphenyl)pyrrolidine-1-carboxamide] | more effective CA XII inhibitor than 3b (human CA XII [4]; CA XII, comparator 3b): 5.5 fold
2 | 8650 nM | 914 nM | 308 nM | 0.34 | 507 nM | NS(=O)(=O)c1ccc(O)c(NC(=O)N2CCCCC2)c1 [Compound 3b, N-(2-Hydroxy-5-sulfamoylphenyl)piperidine-1-carboxamide] | loss of CA I inhibition potency relative to 3a (human CA I [1]; CA I): 14.8 fold; more effective on CA II than 3a (human CA II [2]; CA II, comparator 3a): 3.5 fold; more effective on CA IX than 3a (human CA IX [3]; CA IX, comparator 3a): 1.2 fold
3 | 4000 nM | 8030 nM | 140 nM | 0.017 | 73.8 nM | NS(=O)(=O)c1ccc(O)c(NC(=O)N2CCOCC2)c1 [Compound 3c, N-(2-Hydroxy-5-sulfamoylphenyl)morpholine-4-carboxamide] | loss of CA I inhibition potency relative to 3a (human CA I [1]; CA I): 6.9 fold; CA IX potency increase relative to 3b (human CA IX [3]; CA IX, comparator 3b): 2.2 fold
4 | 689 nM | 288 nM | 4120 nM | 14.3 | 659 nM | NS(=O)(=O)c1ccc(O)c(NC(=O)NCCN2CCCCC2)c1 [Compound 3d, 4-Hydroxy-3-(3-(2-(piperidin-1-yl)ethyl)ureido)benzenesulfonamide] | 
5 | 9210 nM | 3000 nM | 2140 nM | 0.71 | 629 nM | NS(=O)(=O)c1ccc(O)c(NC(=O)NCCN2CCOCC2)c1 [Compound 3e, 4-Hydroxy-3-(3-(2-morpholinoethyl)ureido)benzenesulfonamide] | decrease of CA I affinity relative to 3d (human CA I [1]; CA I, comparator 3d): 13.4 fold; more potent CA IX inhibition compared to 3d (human CA IX [3]; CA IX, comparator 3d): 1.9 fold
6 | 8990 nM | 7740 nM | 2150 nM | 0.28 | 505 nM | CCN1CCN(C(=O)Nc2cc(S(N)(=O)=O)ccc2O)CC1 [Compound 3f, 4-Ethyl-N-(2-hydroxy-5-sulfamoylphenyl)piperazine-1-carboxamide] | decrease of CA I affinity relative to 3d (human CA I [1]; CA I, comparator 3d): 13.1 fold; more effective CA XII inhibitor than 3d (human CA XII [4]; CA XII, comparator 3d): 1.3 fold
7 |  |  |  | 0.0006 |  | NS(=O)(=O)c1ccc(O)c(NC(=O)NCc2ccncc2)c1 [Compound 3g, 4-Hydroxy-3-(3-(pyridin-4-ylmethyl)ureido)benzenesulfonamide] | Ki (human CA I [5]): 89.5 nM; Ki (human CA II [6]): 463 nM; Ki (human CA IX [7]): 0.3 nM; Ki (human CA XII [8]): 85.1 nM; more potent on CA I compared to AAZ (human CA I [1]; CA I, comparator AAZ): up to 2.8 fold
8 |  |  |  | 0.0007 |  | NS(=O)(=O)c1ccc(O)c(NC(=O)NCCc2ccccn2)c1 [Compound 3h, 4-Hydroxy-3-(3-(2-(pyridin-2-yl)ethyl)ureido)benzenesulfonamide] | Ki (human CA I [5]): 571 nM; Ki (human CA II [6]): 331 nM; Ki (human CA IX [7]): 0.24 nM; Ki (human CA XII [8]): 65.9 nM; CA I potency increase relative to 3d (human CA I [1]; CA I, comparator 3d): 1.2 fold
9 | 698 nM | 405 nM | 204 nM | 0.50 | 33.7 nM | NS(=O)(=O)c1ccc(O)c(NC(=O)N2CCN(CC(=O)NC3CCCCC3)CC2)c1 [Compound 3i, 4-(2-(Cyclohexylamino)-2-oxoethyl)-N-(2-hydroxy-5-sulfamoylphenyl)piperazine-1-carboxamide] | inhibition of CA I (in words) (human CA I [1]; CA I): did not result in appreciable inhibition
10 |  |  |  | 0.46 |  | NS(=O)(=O)c1ccc(O)c(NC(=O)NCCCCO)c1 [Compound 3j, 4-Hydroxy-3-(3-(4-hydroxybutyl)ureido)benzenesulfonamide] | Ki (human CA II [6]): 280 nM; Ki (human CA IX [7]): 215 nM; Ki (human CA XII [8]): 47.1 nM; inhibition of CA I (in words) (human CA I [1]; CA I): did not result in appreciable inhibition
11 |  | 75.9 nM | 34.7 nM | 0.77 | 239 nM | NS(=O)(=O)c1ccc(CCNC(=O)Nc2ccccc2O)cc1 [Compound 3k, 4-(2-(3-(2-Hydroxyphenyl)ureido)ethyl)benzenesulfonamide] | inhibition of CA I (in words) (human CA I [1]; CA I): did not result in appreciable inhibition; less effective on CA II than AAZ (human CA II [2]; CA II, comparator AAZ): 6.3 fold
